Earlier results as cited in US20150098993A1, “COMPOSITIONS, PROCESS OF PREPARATION OF SAID COMPOSITIONS AND METHOD OF TREATING INFLAMMATORY DISEASES” (priority 2011, published 2015).
Blank lines part the entries; values can stand above or below the compound they belong to.

What was measured:
[1] = not given; remark: listed apart in the source
[2] = in vivo
[3] = system: mice; details: in mice
[4] = molecular target: T1, AT1 receptor (Homo sapiens, UniProt P30556); details: AT1 vs AT2 receptor
T1 sequence (P30556 1-359): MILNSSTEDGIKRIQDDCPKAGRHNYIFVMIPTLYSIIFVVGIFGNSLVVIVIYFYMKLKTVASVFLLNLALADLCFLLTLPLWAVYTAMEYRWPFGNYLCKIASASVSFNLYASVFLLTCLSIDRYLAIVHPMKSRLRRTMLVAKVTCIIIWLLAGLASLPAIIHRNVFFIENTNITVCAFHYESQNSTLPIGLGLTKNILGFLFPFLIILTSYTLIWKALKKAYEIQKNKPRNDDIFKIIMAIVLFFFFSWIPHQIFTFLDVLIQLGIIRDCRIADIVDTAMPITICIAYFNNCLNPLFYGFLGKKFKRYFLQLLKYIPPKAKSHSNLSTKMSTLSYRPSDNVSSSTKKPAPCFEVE

[5] = not given; remark: listed apart in the source
[6] = system: male BALB/c mice; details: apremilast 5 and 25 mg/kg, dexamethasone 1 mg/kg; daily, oral; McCann
[7] = system: DBA/1 mice; details: DBA/1 mice immunized with bCII/CFA; Dalbeth

SMILES: CCCc1nc(C(C)(C)O)c(C(=O)OCc2oc(=O)oc2C)n1Cc1ccc(-c2ccccc2-c2nnn[nH]2)cc1 [Olmesartan medoxomil]
absolute bioavailability (in vivo): about 26%

SMILES: O=C(Nc1c(Cl)cncc1Cl)c1ccc(OC(F)F)c(OCC2CC2)c1 [CW304, 3-(cyclopropylmethoxy)-N-(3,5-dichloropyridin-4-yl)-4-(difluoromethoxy)benzamide]
Cmax (in vivo): 7040 ng/mL | T½ (in vivo): 12 to 14 h | absolute bioavailability (in vivo): 79% | solubility in acetone ([1]; acetone): freely soluble | solubility in ethanol ([1]; ethanol): sparingly soluble | side effects of therapy [2]: gastrointestinal (GI) events including nausea, diarrhea, and weight loss | maximum tolerated dose [3]: 2 mg/kg

SMILES: CCCc1nc(C(C)(C)O)c(C(=O)OCc2oc(=O)oc2C)n1Cc1ccc(-c2ccccc2-c2nnn[nH]2)cc1 [(5-methyl-2-oxo-2H-1,3-dioxol-4-yl)methyl 4-(2-hydroxypropan-2-yl)-2-propyl-1-({4-[2-(2H-1,2,3,4-tetrazol-5-yl)phenyl]phenyl}methyl)-1H-imidazole-5-carboxylate]
greater affinity for the AT1 receptor than for the AT2 receptor [4]: > 12,500 fold | T½ (in vivo): 13 h | half-life (in vivo): about 13 hours | penetration of red blood cells (in vivo): does not penetrate red blood cells | solubility in methanol ([1]; methanol): sparingly soluble | solubility in water ([1]; water): practically insoluble | protein binding [5]: 99% | side effects of therapy [2]: dehydration (dry mouth, excessive thirst, muscle pain or cramps, nausea and vomiting, weakness), dizziness, low blood pressure, and slow or irregular heartbeat | maximum tolerated dose [3]: 25 mg/kg

Tmax (in vivo): 1.2 h | maximum levels achieved after dosing (time) (in vivo): 2 to 4 h
SMILES: Cc1ccc(NC(=O)c2ccc(CN3CCN(C)CC3)cc2)cc1Nc1nccc(-c2cccnc2)n1 [Imatinib, N-(4-methyl-3-{[4-(pyridin-3-yl)pyrmidin-2-yl]amino}phenyl)-4-[(4-methylpiperazin-1-yl)methyl]benzamide]

SMILES: CCOc1cc([C@@H](CS(C)(=O)=O)N2C(=O)c3cccc(NC(C)=O)c3C2=O)ccc1OC [Apremilast, (S)-N-{2-[1-(3-Ethoxy-4-methoxyphenyl)-2-methanesulfonylethyl]-1,3-dioxo-2,3-dihydro-1H-isoindol-4-yl}acetamide]
arthritis severity, as measured by clinical score [6]: significantly suppressed arthritis severity

SMILES: CCOC(=O)[C@H](CCc1ccccc1)N[C@@H](C)C(=O)N1Cc2ccccc2C[C@H]1C(=O)O [Quinapril, (3S)-2-[(2S)-2-{[(2S)-1-ethoxy-1-oxo-4-phenylbutan-2-yl]amino}propanoyl]-1,2,3,4-tetrahydroisoquinoline-3-carboxylic acid]
time of peak plasma concentration (following oral administration): within one hour | T½ (in vivo): 13 h | extent of absorption (in vivo): at least 60% | half-life (in vivo): 2 h | half-life, prolonged terminal phase (terminal phase): 25 h | solubility in aqueous solvents ([1]; aqueous solvents): freely soluble | protein binding [5]: about 97% | severity of collagen-induced arthritis [7]: reduced the severity | maximum tolerated dose [3]: 25 mg/kg
